Test results reported in BigSolDB 2.1.

Oc1cc(Cl)ccc1Oc1ccc(Cl)cc1Cl
solubility (mole fraction)
Details	in chloroform	in ethanol	in isopropyl myristate	in n-heptane	in n-octanol
293.15 K	0.33	0.332	0.0422	0.0156	0.0089
298.15 K	0.412	0.449	0.0475	0.0286	0.025
303.15 K	0.501	0.57	0.0527	0.0421	0.0785
308.15 K	0.561	0.654	0.0563	0.0605	0.157
313.15 K	0.633	0.751	0.0594	0.0806	0.285
